In patent US6355269B1, “Oral compositions of levosimendan” (Orion Corporation, priority 1997, dated 2002):

Tests used:
[1] = system: intestinal bacteria; conditions: oral administration; by intestinal bacteria; cited from earlier work
[2] = Pharmacokinetic study of levosimendan capsules, single oral dose, in healthy volunteers; type: in vivo, human; conditions: from oral compositions comprising substantially pure crystalline polymorphic form I
Method: Pharmacokinetic parameters of two different polymorphs, (I) and (II), of levosimendan in healthy volunteers after a single oral dose of 2 mg of levosimendan capsule was studied. The formulations of hard gelatin capsules (size 3) A and B were the following:
The small value of Tmax indicates rapid absorption of the drug into plasma.

[3] = system: troponin; conditions: racemic mixture; cited from earlier work

SMILES | metabolization in the lower gastrointestinal tract [1] | dissolution and absorption into plasma [2] | calcium dependent binding to troponin [3]
CC1CC(=O)NN=C1c1ccc(NN=C(C#N)C#N)cc1 (single isomer, unassigned; (-)) [levosimendan, (−)-[[4-(1,4,5,6-tetrahydro-4-methyl-6-oxo-3-pyridazinyl)phenyl]hydrazono]propanedinitrile] | susceptible to metabolization in the lower gastrointestinal tract by intestinal bacteria | rapidly dissolved and absorbed into plasma | 
CC1CC(=O)NN=C1c1ccc(NN=C(C#N)C#N)cc1 (racemic) [compound (I), [[4-(1,4,5,6-tetrahydro-4-methyl-6-oxo-3-pyridazinyl)phenyl]hydrazono]propanedinitrile] |  |  | significant calcium dependent binding to troponin
